ChEMBL document CHEMBL5584337, “Structure-Based Drug Design of 2-Amino-[1,1'-biphenyl]-3-carboxamide Derivatives as Selective PKMYT1 Inhibitors for the Treatment of CCNE1-Amplified Breast Cancer” (J Med Chem, 2024)
Active and inactive are the calls of the source. The rule behind the calls is not given here.

What was measured:
HCC1569 [1] = experiment: Antiproliferative activity against human HCC1569 cells incubated for 48 to 96 hrs by CCK-8 assay; type: functional, cell-based
ZR-75-1 [2] = experiment: Antiproliferative activity against human ZR-75-1 cells incubated for 48 to 96 hrs by CCK-8 assay; type: functional, cell-based
[3] = target: Membrane-associated tyrosine- and threonine-specific cdc2-inhibitory kinase (Homo sapiens, UniProt Q99640); experiment: Inhibition of recombinant human GST-tagged PKMYT1 (75 to 362 residues) expressed in insect cells using GTDEGIYDVPLLG as substrate preincubated for 15 mins followed by substrate and ATP addition and measured after 1 hr by ADP-Glo kinase assay; set-up: species or system Insect cell
Membrane-associated tyrosine- and threonine-specific cdc2-inhibitory kinase, sequence (Q99640 whole entry, the tested form may be a part): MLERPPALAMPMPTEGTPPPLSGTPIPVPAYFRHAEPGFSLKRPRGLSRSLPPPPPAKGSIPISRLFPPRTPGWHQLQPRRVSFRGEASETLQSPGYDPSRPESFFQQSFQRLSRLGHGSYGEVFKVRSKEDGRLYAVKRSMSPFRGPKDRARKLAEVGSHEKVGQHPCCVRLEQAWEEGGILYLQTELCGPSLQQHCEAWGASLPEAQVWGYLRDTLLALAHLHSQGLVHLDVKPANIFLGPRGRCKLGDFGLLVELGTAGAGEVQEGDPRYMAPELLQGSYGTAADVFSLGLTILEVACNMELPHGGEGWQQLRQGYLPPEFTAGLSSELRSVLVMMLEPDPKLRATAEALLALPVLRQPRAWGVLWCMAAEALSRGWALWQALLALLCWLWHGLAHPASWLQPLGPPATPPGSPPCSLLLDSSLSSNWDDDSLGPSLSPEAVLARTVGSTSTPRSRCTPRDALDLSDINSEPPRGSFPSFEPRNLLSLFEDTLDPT

Wee1-like protein kinase = Wee1-like protein kinase (Homo sapiens, UniProt P30291); experiment: Inhibition of recombinant full-length human GST-tagged Wee1 expressed in insect cells using KIGEGTYGVVYKG as substrate preincubated for 15 mins followed by substrate and ATP addition and measured after 1 hr by ADP-Glo kinase assay; set-up: species or system Insect cell
Wee1-like protein kinase, sequence (P30291 whole entry): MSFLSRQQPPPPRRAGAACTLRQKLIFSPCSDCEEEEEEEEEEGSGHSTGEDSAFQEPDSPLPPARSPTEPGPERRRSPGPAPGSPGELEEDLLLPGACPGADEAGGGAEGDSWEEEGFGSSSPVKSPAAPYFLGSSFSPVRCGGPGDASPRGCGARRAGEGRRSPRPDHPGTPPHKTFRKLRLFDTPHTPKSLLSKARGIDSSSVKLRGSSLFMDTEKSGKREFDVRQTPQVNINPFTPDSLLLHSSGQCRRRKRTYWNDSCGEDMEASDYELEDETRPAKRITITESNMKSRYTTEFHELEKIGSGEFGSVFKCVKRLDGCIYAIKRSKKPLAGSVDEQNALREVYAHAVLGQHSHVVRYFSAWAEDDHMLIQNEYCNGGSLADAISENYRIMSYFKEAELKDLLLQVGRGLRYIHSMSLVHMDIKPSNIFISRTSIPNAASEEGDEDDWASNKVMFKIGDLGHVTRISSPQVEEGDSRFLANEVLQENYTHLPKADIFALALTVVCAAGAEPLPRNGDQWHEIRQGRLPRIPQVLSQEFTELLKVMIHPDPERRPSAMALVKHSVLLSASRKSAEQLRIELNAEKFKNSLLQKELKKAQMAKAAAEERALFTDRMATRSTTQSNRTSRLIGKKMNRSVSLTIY

Activated CDC42 kinase 1 = Activated CDC42 kinase 1 (Homo sapiens, UniProt Q07912); experiment: Inhibition of ACK1 (unknown origin)
[4] = target: Tyrosine-protein kinase ABL2 (Homo sapiens, UniProt P42684); experiment: Inhibition of Arg (unknown origin)
[5] = target: Tyrosine-protein kinase Blk (Homo sapiens, UniProt P51451); experiment: Inhibition of BLK (unknown origin)
[6] = target: Protein-tyrosine kinase 6 (Homo sapiens, UniProt Q13882); experiment: Inhibition of BRK (unknown origin)
[7] = target: Proto-oncogene tyrosine-protein kinase Src (Homo sapiens, UniProt P12931); experiment: Inhibition of cSRC (unknown origin)
Proto-oncogene tyrosine-protein kinase Src, sequence (P12931 2-536 limits assumed): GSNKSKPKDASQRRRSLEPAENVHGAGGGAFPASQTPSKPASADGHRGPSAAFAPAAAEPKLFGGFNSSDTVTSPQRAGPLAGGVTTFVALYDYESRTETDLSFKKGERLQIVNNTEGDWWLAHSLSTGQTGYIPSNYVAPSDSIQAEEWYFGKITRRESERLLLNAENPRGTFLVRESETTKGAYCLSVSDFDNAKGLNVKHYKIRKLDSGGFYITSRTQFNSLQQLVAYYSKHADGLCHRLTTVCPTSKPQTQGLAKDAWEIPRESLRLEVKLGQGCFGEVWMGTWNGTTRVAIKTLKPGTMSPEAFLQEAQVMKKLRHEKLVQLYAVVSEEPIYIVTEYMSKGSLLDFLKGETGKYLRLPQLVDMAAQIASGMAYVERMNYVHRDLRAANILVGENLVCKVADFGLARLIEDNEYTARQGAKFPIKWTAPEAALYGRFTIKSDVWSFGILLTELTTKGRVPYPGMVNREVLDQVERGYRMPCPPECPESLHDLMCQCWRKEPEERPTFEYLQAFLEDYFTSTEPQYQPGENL

[8] = target: Epithelial discoidin domain-containing receptor 1 (Homo sapiens, UniProt Q08345); experiment: Inhibition of DDR1 (unknown origin)
Epithelial discoidin domain-containing receptor 1, sequence (Q08345 whole entry, the tested form may be a part): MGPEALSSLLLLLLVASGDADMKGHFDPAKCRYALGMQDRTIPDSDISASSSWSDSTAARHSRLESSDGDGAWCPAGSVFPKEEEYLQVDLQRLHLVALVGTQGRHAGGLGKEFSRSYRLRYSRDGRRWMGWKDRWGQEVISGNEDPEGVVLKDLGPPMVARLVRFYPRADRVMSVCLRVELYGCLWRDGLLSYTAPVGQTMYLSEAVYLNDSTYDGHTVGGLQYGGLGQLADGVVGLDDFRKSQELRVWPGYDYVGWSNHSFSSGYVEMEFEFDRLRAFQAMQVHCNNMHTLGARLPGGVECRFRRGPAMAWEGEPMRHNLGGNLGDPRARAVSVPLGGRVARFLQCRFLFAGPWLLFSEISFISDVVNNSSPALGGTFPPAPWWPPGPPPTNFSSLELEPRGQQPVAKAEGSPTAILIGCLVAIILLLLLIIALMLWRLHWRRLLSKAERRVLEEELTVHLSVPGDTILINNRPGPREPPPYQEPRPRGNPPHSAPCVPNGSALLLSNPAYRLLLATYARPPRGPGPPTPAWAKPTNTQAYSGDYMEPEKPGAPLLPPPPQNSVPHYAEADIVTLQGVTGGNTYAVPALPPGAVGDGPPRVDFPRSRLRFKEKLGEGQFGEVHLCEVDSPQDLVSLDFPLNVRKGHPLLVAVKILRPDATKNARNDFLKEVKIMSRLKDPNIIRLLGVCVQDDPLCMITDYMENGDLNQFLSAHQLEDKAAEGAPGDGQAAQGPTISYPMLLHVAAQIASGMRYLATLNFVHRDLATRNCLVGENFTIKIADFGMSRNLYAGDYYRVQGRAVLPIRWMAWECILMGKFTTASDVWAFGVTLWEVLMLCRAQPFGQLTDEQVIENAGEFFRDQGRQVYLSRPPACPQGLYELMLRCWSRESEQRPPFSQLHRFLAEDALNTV

Ephrin type-A receptor 1 = Ephrin type-A receptor 1 (Homo sapiens, UniProt P21709); experiment: Inhibition of EphA1 (unknown origin)
Ephrin type-B receptor 2 = Ephrin type-B receptor 2 (Homo sapiens, UniProt P29323); experiment: Inhibition of EphB2 (unknown origin)
Ephrin type-B receptor 1 = Ephrin type-B receptor 1 (Homo sapiens, UniProt P54762); experiment: Inhibition of EphB1 (unknown origin)
Ephrin type-B receptor 1, sequence (P54762 whole entry): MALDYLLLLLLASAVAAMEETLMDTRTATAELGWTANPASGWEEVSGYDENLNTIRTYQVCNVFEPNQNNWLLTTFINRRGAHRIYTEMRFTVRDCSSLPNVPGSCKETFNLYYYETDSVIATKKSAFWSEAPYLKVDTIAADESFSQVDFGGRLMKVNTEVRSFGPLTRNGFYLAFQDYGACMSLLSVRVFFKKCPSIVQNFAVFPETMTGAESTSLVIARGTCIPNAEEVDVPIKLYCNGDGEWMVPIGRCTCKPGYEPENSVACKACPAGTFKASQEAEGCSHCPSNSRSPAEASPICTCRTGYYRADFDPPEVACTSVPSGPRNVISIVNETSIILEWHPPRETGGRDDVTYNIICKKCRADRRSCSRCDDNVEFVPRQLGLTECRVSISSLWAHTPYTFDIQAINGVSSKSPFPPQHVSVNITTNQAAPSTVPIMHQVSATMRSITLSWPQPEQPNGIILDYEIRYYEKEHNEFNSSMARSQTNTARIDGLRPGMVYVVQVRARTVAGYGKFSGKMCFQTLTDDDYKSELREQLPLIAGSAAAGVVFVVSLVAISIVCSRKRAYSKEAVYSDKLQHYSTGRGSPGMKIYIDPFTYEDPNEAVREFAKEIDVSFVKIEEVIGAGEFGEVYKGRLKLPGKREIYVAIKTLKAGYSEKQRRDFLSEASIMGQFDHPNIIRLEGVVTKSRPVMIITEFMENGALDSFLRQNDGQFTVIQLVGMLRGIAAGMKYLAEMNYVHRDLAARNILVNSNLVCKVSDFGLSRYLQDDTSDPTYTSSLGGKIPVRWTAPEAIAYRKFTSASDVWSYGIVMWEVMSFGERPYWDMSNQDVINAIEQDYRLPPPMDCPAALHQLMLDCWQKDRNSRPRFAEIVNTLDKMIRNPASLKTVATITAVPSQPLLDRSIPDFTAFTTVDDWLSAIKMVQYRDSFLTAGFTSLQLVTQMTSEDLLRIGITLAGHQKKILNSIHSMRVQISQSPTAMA

Ephrin type-B receptor 4 = Ephrin type-B receptor 4 (Homo sapiens, UniProt P54760); experiment: Inhibition of EphB4 (unknown origin)
[9] = target: Tyrosine-protein kinase Fgr (Homo sapiens, UniProt P09769); experiment: Inhibition of Fgr (unknown origin)
Tyrosine-protein kinase Fgr, sequence (P09769 whole entry): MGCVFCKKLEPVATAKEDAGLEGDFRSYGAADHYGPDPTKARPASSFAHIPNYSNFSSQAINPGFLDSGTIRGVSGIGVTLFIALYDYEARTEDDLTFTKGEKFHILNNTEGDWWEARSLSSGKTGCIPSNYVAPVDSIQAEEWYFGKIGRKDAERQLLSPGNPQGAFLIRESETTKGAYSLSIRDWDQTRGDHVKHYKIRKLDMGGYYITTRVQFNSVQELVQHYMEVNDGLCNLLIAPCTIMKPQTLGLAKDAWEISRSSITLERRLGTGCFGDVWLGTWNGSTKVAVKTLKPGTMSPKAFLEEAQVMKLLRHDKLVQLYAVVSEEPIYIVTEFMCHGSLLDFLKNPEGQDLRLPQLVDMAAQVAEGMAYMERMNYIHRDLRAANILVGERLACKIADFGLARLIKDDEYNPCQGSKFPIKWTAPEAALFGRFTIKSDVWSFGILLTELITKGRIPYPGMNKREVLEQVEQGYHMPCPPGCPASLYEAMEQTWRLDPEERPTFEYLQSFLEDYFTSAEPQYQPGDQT

[10] = target: Tyrosine-protein kinase HCK (Homo sapiens, UniProt P08631); experiment: Inhibition of HCK (unknown origin)
[11] = target: Tyrosine-protein kinase Lck (Homo sapiens, UniProt P06239); experiment: Inhibition of LCK (unknown origin)
Tyrosine-protein kinase Lck, sequence (P06239 whole entry): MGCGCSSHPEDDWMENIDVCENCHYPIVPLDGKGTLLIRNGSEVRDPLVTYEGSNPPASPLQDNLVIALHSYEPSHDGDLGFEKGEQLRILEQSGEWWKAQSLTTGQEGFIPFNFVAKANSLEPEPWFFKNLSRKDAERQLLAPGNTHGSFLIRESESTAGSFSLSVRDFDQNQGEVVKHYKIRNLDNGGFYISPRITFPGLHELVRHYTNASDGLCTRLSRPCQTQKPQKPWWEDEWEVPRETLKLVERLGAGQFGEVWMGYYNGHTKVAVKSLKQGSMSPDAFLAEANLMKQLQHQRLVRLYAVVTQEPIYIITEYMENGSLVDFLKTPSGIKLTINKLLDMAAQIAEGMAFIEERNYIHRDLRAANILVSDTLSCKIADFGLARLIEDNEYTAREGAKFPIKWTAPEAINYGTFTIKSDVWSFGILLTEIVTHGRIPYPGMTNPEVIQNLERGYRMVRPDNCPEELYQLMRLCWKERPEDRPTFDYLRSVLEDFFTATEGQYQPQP

[12] = target: Tyrosine-protein kinase Lyn (Homo sapiens, UniProt P07948); experiment: Inhibition of Lyn (unknown origin)
[13] = target: Tyrosine-protein kinase Yes (Homo sapiens, UniProt P07947); experiment: Inhibition of YES (unknown origin)
[14] = target: Cyclin-dependent kinase 1 (Homo sapiens) (UniProt P06493); experiment: Inhibition of CDK1 phosphorylation at Thr14 in human HCC1569 cells after 4 hrs by Western blotting analysis; type: cell-based; settings: dose 0.1-2 µM
Cyclin-dependent kinase 1 (Homo sapiens), sequence (P06493 whole entry, looked up): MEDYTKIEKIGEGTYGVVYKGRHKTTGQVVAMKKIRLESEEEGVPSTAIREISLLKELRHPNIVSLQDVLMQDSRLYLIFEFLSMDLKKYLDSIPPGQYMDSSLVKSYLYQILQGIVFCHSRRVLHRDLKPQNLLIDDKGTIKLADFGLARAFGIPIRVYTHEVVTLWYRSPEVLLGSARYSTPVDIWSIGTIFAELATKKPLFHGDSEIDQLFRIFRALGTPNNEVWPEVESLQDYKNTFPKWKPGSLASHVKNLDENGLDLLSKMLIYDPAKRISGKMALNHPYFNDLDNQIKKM

[15] = target: Cyclin-dependent kinase 1 (Homo sapiens) (UniProt P06493); experiment: Inhibition of CDK1 phosphorylation at Thr14 in human HCC1569 cells at 2 uM after 8 to 12 hrs by Western blotting analysis; type: cell-based; settings: time 8-12 hrs
[16] = target: Cyclin-dependent kinase 1 (Homo sapiens) (UniProt P06493); experiment: Inhibition of CDK1 phosphorylation at […] in human HCC1569 cells at 2 uM after 0.5 to 12 hrs by Western blotting analysis; type: cell-based; settings: time 0.5-12 hrs
[17] = target: Cyclin-dependent kinase 2 (Homo sapiens) (UniProt P24941); experiment: Inhibition of CDK2 phosphorylation at Tyr15 in human HCC1569 cells at 0.1 to 2 uM after 4 hrs by Western blotting analysis; type: cell-based; settings: dose 0.1-2 µM
HCC1569 [18] = experiment: Inhibition of colony formation in CCNE1-amplified human HCC1569 cells incubated for 14 days by crystal violet staining based microplate reader assay; type: functional, cell-based; settings: HCC1569, 336 h
ZR-75-1 [19] = experiment: Inhibition of colony formation in human ZR-75-1 cells incubated for 14 days by crystal violet staining based microplate reader assay; type: functional, cell-based; settings: ZR-75-1, 336 h
HCC1569 [20] = experiment: Induction of DNA damage in human HCC1569 cells assessed as upregulation of gammaH2AX level after 4 hrs by Western blotting analysis; type: functional, cell-based; settings: dose 0.1-2 µM
HCC1569 [21] = experiment: Induction of DNA damage in human HCC1569 cells assessed as upregulation of gammaH2AX level at 2 uM by Western blotting analysis; type: functional, cell-based; settings: time 0.5-12 hrs, TDE = time-dependent effect
HCC1569 [22] = experiment: Synergistic cytotoxicity against human HCC1569 cells after 48 to 96 hrs; type: functional, cell-based; settings: time 48-96 hrs
HCC1569 [23] = experiment: Induction of DNA damage in human HCC1569 cells assessed as upregulation of gammaH2AX level at 62.5 to 500 nM after 48 hrs in presence of gemcitabine by Western blotting analysis; type: functional, cell-based; settings: dose 62.5-500 nM
[24] = Cmax in Sprague-Dawley rat at 10 mg/kg, po measured upto 24 hrs by LC-MS/MS analysis; type: ADME, organism-based; settings: in vivo
[25] = AUC(0 to t) in Sprague-Dawley rat at 10 mg/kg, po measured upto 24 hrs by LC-MS/MS analysis; type: ADME, organism-based; settings: in vivo
[26] = Clearance in Sprague-Dawley rat at 10 mg/kg, po measured upto 24 hrs by LC-MS/MS analysis; type: ADME, organism-based; settings: in vivo

CN[C@@H]1CCN(c2cc(-c3cc(C(N)=O)c(N)c(-c4c(C)ccc(O)c4C)c3)ccn2)C1
IC50 (HCC1569 [1]): 0.47 µM
IC50 (ZR-75-1 [2]): 5.6 µM

Cc1ccc(O)c(C)c1-c1cc(-c2ccnc(N3CCCNCC3)c2)cc(C(N)=O)c1N
IC50 (HCC1569 [1]): 0.29 µM
IC50 (ZR-75-1 [2]): 4.83 µM

Cc1ccc(O)c(C)c1-c1cc(-c2ccnc(N3CC[C@@H](N)C3)c2)cc(C(N)=O)c1N
IC50 (HCC1569 [1]): 0.29 µM
IC50 (ZR-75-1 [2]): 8.49 µM

Cc1ccc(O)c(C)c1-c1cc(-c2ccnc(OCCCN)c2)cc(C(N)=O)c1N
IC50 (HCC1569 [1]): 9.48 µM
IC50 (ZR-75-1 [2]): 15.4 µM

Cc1ccc(O)c(C)c1-c1cc(-c2ccnc(N3CCOCC3)c2)cc(C(N)=O)c1N
IC50 (HCC1569 [1]): 1.84 µM
IC50 (ZR-75-1 [2]): > 20 µM

Cc1ccc(O)c(C)c1-c1cc(-c2ccnc(OC[C@@H]3CCCN3)c2)cc(C(N)=O)c1N
IC50 (HCC1569 [1]): 1.18 µM
IC50 (ZR-75-1 [2]): 7.12 µM

Cc1ccc(O)c(C)c1-c1cc(-c2ccnc(N3C[C@@H]4C[C@H]3CN4)c2)cc(C(N)=O)c1N
IC50 (HCC1569 [1]): 7.78 µM
IC50 (ZR-75-1 [2]): > 20 µM

Cc1ccc(O)c(C)c1-c1cc(-c2cc(F)nc(N3CC[C@@H](N)C3)c2)cc(C(N)=O)c1N
IC50 (HCC1569 [1]): 0.25 µM
IC50 (ZR-75-1 [2]): 4.96 µM
IC50 [3]: 0.0165 µM
IC50 (Wee1-like protein kinase): 8.2 µM
IC50 (Activated CDC42 kinase 1): 0.268 µM
IC50 [4]: 0.0109 µM
IC50 [5]: 0.0601 µM
IC50 [6]: 0.008 µM
IC50 [7]: 0.0099 µM
IC50 [8]: 0.0106 µM
IC50 (Ephrin type-A receptor 1): 0.11 µM
IC50 (Ephrin type-B receptor 2): 0.0272 µM
IC50 (Ephrin type-B receptor 1): 0.0416 µM
IC50 (Ephrin type-B receptor 4): 0.134 µM
IC50 [9]: 0.0093 µM
IC50 [10]: 0.0486 µM
IC50 [11]: 0.0145 µM
IC50 [12]: 0.0183 µM
IC50 [13]: > 1 µM
inhibition [14]: Dose-Dependent Effect
inhibition [15]: 100%
inhibition [16]: inactive
inhibition [17]: inactive
EC50 (HCC1569 [18]): 0.117 µM
EC50 (ZR-75-1 [19]): > 5 µM
Activity (HCC1569 [20]): Dose-Dependent Effect
Activity (HCC1569 [21]): Tde
Activity (HCC1569 [22]): Active
Activity (HCC1569 [23]): Active
Cmax [24]: 6.17 ng/mL
AUCt [25]: 6.51 ng·h/mL
CL [26]: 92.17 mL/min/kg

Cc1ccc(O)c(C)c1-c1cc(-c2ccnc(OCCN)c2)cc(C(N)=O)c1N
IC50 (HCC1569 [1]): 1.66 µM
IC50 (ZR-75-1 [2]): 4.4 µM

Cc1ccc(O)c(C)c1-c1cc(-c2ccnc(N3CC[C@H](N)C3)c2)cc(C(N)=O)c1N
IC50 (HCC1569 [1]): 1.65 µM
IC50 (ZR-75-1 [2]): > 20 µM

CNCCCOc1cc(-c2cc(C(N)=O)c(N)c(-c3c(C)ccc(O)c3C)c2)ccn1
IC50 (HCC1569 [1]): 2.49 µM
IC50 (ZR-75-1 [2]): > 20 µM

Cc1ccc(O)c(C)c1-c1cc(-c2ccnc(N3CCNCC3)c2)cc(C(N)=O)c1N
IC50 (HCC1569 [1]): 1.39 µM
IC50 (ZR-75-1 [2]): > 20 µM

Cc1ccc(O)c(C)c1-c1cc(-c2ccncc2)cc(C(N)=O)c1N
IC50 (HCC1569 [1]): 0.77 µM
IC50 (ZR-75-1 [2]): 11.6 µM
IC50 [3]: 0.101 µM

Cc1ccc(O)c(C)c1-c1cc(-c2ccnc(OC[C@H]3CCNC3)c2)cc(C(N)=O)c1N
IC50 (HCC1569 [1]): 2.19 µM
IC50 (ZR-75-1 [2]): 8.53 µM

Cc1ccc(O)c(C)c1-c1cc(-c2ccnc(OC3CCNCC3)c2)cc(C(N)=O)c1N
IC50 (HCC1569 [1]): 3.84 µM
IC50 (ZR-75-1 [2]): > 20 µM

Cc1ccc(O)c(C)c1-c1cc(-c2ccnc(N3C4CNCC3C4)c2)cc(C(N)=O)c1N
IC50 (HCC1569 [1]): > 20 µM
IC50 (ZR-75-1 [2]): > 20 µM

Cc1ccc(O)c(C)c1-c1cc(-c2cc(OC(F)F)nc(N3CC[C@@H](N)C3)c2)cc(C(N)=O)c1N
IC50 (HCC1569 [1]): 0.8 µM
IC50 (ZR-75-1 [2]): 4.15 µM
